This experiment can be described thus: Binding affinity by its ability to displace [3H]DPDPE from delta receptor in homogenates of guinea pig brain.
One may read the Ki as the equilibrium dissociation constant of an inhibitor or competing ligand from its target. A lower Ki goes with higher affinity. Turning to `COc1cccc2c1[C@]13CCN(CC4CC4)[C@H](C2)[C@]1(OC)CCC(=O)C3` [Naltrindole analogue], the Ki was found to be 105 nM. This lies in the sub-micromolar range.
For `COc1cccc2c1[C@]13CCN(CCc4ccccc4)C(C2)[C@]1(OC)CCC(=O)C3` [3,10-dimethoxy-17-phenethyl-17-azatetracyclo[7.5.3.01,10.02,7]heptadeca-2(7),3,5-trien-13-one; with HBr] the value was 49 nM; for `COc1cccc2c1[C@]13CCN(C)[C@H](C2)[C@]1(OC)CCC(=O)C3` [3,10-dimethoxy-17-methyl-(10S)-17-azatetracyclo[7.5.3.01,10.02,7]heptadeca-2(7),3,5-trien-13-one], 46 nM.

Values taken from BindingDB's records for doi:10.1016/0960-894X(95)00325-N (1995).
